Assay results taken from ChEMBL document CHEMBL4229492, “Design, Synthesis, and Biological Evaluation of Novel 7-[(3 aS,7 aS)-3 a-Aminohexahydropyrano[3,4- c]pyrrol-2(3 H)-yl]-8-methoxyquinolines with Potent Antibacterial Activity against Respiratory Pathogens” (J Med Chem, 2018).
Values after ≈ are worked out from the molar mass of the structure shown. Active and inactive are the calls of the source. No cut-off for these calls is given here.

Key:
Mus musculus [1] = experiment: Toxicity in Slc:ddY mouse assessed as induction of convulsion at 5 ug/5 uL/mouse administered intracisternally and measured over 30 mins post dose; format: organism-based; settings: in vivo, other, 0.5 h
Mus musculus [2] = experiment: Toxicity in Slc:ddY mouse assessed as induction of convulsion at 5 ug/5 uL/mouse administered intracisternally 30 mins after 400 mg/kg, po BPAA dosing and measured over 30 mins post dose; format: organism-based; settings: in vivo, 0.5 h
Mus musculus [3] = experiment: Toxicity in Slc:ddY mouse assessed as induction of convulsion at 15 ug/5 uL/mouse administered intracisternally 30 mins after 400 mg/kg, po BPAA dosing and measured over 30 mins post dose; format: organism-based; settings: in vivo, 0.5 h
Mus musculus [4] = experiment: Toxicity in Slc:ddY mouse assessed as induction of convulsion at 50 ug/5 uL/mouse administered intracisternally 30 mins after 400 mg/kg, po BPAA dosing and measured over 30 mins post dose; format: organism-based; settings: in vivo, 0.5 h
Mus musculus [5] = experiment: Toxicity in Slc:ddY mouse assessed as induction of mortality at 5 ug/5 uL/mouse administered intracisternally and measured over 30 mins post dose; format: organism-based; settings: in vivo, other, 0.5 h
Mus musculus [6] = experiment: Toxicity in Slc:ddY mouse assessed as induction of mortality at 5 ug/5 uL/mouse administered intracisternally 30 mins after 400 mg/kg, po BPAA dosing and measured over 30 mins post dose; format: organism-based; settings: in vivo, 0.5 h
Mus musculus [7] = experiment: Toxicity in Slc:ddY mouse assessed as induction of mortality at 15 ug/5 uL/mouse administered intracisternally 30 mins after 400 mg/kg, po BPAA dosing and measured over 30 mins post dose; format: organism-based; settings: in vivo, 0.5 h
Mus musculus [8] = experiment: Toxicity in Slc:ddY mouse assessed as induction of mortality at 50 ug/5 uL/mouse administered intracisternally 30 mins after 400 mg/kg, po BPAA dosing and measured over 30 mins post dose; format: organism-based; settings: in vivo, 0.5 h
Streptococcus pneumoniae [9] = experiment: (§1) In vivo antibacterial activity against quinolone-sensitive and penicillin-resistant Streptococcus pneumoniae 033806 infected in CBA/JNCrj mouse assessed as reduction in bacterial count at 40 to 80 mg/kg, sc administered twice per day starting from 1 day after infection and measured on day after final dose; format: functional, organism-based
Staphylococcus aureus [10] = experiment: Antibacterial activity against methicillin-resistant Staphylococcus aureus after 18 hrs by two-fold microbroth dilution method; format: functional
Streptococcus pneumoniae [11] = experiment: as §1, with “at 10 to” for “at”, “40” for “40 to 80”; format: functional, organism-based
Staphylococcus aureus [12] = experiment: Antibacterial activity against Staphylococcus aureus SMITH after 18 hrs by two-fold microbroth dilution method; format: functional
Streptococcus pneumoniae [13] = experiment: Antibacterial activity against penicillin-susceptible Streptococcus pneumoniae J24 after 18 hrs by two-fold microbroth dilution method; format: functional; settings: J24, 18 h
Streptococcus pneumoniae [14] = experiment: Antibacterial activity against penicillin-susceptible Streptococcus pneumoniae J41 after 18 hrs by two-fold microbroth dilution method; format: functional; settings: J41, 18 h
Streptococcus pyogenes = experiment: Antibacterial activity against Streptococcus pyogenes ATCC 12344 after 18 hrs by two-fold microbroth dilution method; format: functional; settings: ATCC 12344, 18 h
Enterococcus faecalis = experiment: Antibacterial activity against Enterococcus faecalis ATCC 19433 after 18 hrs by two-fold microbroth dilution method; format: functional; settings: ATCC 19433, 18 h
Bacillus spizizenii = experiment: Antibacterial activity against Bacillus subtilis ATCC 6633 after 18 hrs by two-fold microbroth dilution method; format: functional; settings: ATCC 6633, 18 h
Escherichia coli [15] = experiment: Antibacterial activity against Escherichia coli NIHJ after 18 hrs by two-fold microbroth dilution method; format: functional
Klebsiella pneumoniae = experiment: Antibacterial activity against Klebsiella pneumoniae TYPE 1 after 18 hrs by two-fold microbroth dilution method; format: functional; settings: TYPE 1, 18 h
Haemophilus influenzae = experiment: Antibacterial activity against Haemophilus influenzae ATCC 49247 after 18 hrs by two-fold microbroth dilution method; format: functional; settings: ATCC 49247, 18 h
Moraxella catarrhalis = experiment: Antibacterial activity against Moraxella catarrhalis ATCC 25238 after 18 hrs by two-fold microbroth dilution method; format: functional; settings: ATCC 25238, 18 h
Pseudomonas aeruginosa = experiment: Antibacterial activity against Pseudomonas aeruginosa PAO1 after 18 hrs by two-fold microbroth dilution method; format: functional; settings: PAO1, 18 h
Staphylococcus aureus [16] = experiment: Antibacterial activity against levofloxacin and methicillin-resistant Staphylococcus aureus 870307 after 18 hrs by two-fold microbroth dilution method; format: functional; settings: Staphylococcus aureus, 870307, 18 h
Staphylococcus aureus [17] = experiment: Antibacterial activity against levofloxacin and methicillin-resistant Staphylococcus aureus 890325-1 after 18 hrs by two-fold microbroth dilution method; format: functional; settings: 890325-1, 18 h
Escherichia coli [18] = experiment: Antibacterial activity against quinolone-resistant Escherichia coli DNS5101 after 18 hrs by two-fold microbroth dilution method; format: functional; settings: DNS5101, 18 h
Escherichia coli [19] = experiment: Antibacterial activity against Escherichia coli 5-037042'98 harboring gyrase A Asp87Gly mutation after 18 hrs by two-fold microbroth dilution method; format: functional; settings: 5-037042'98, 18 h
hERG (KCNH2) [20] = molecular target: T1, hERG (KCNH2) (Homo sapiens, UniProt Q12809); experiment: Inhibition of human ERG expressed in HEK293 cells at 30 uM; format: cell-based; settings: HEK293 cells that express human ERG
hERG (KCNH2) [21] = molecular target: T1, hERG (KCNH2); experiment: Inhibition of human ERG expressed in HEK293 cells at 100 uM; format: cell-based; settings: HEK293 cells that express human ERG
[22] = Cmax in Crj:CD rat at 5 mg/kg, po; format: ADME, organism-based; set-up: dose 5 mg/kg, route oral; settings: in vivo
[23] = AUC (0 to 8 hrs) in Crj:CD rat at 5 mg/kg, po; format: ADME, organism-based; set-up: time < 8 hr, dose 5 mg/kg, route oral; settings: in vivo
Streptococcus pneumoniae [24] = experiment: Antibacterial activity against penicillin-resistant Streptococcus pneumoniae 033806 after 18 hrs by two-fold microbroth dilution method; format: functional; settings: Streptococcus pneumoniae, 033806, 18 h
[25] = Metabolic stability in human microsomes at 1 uM assessed as compound remaining after 30 mins; format: ADME, Microsome; settings: read-out: Stability
Albumin = Albumin (Homo sapiens, UniProt P02768); experiment: Binding affinity to human serum albumin after 60 mins at 37 degC by ultrafiltration-based LC-MS analysis; format: ADME; settings: read-out: PB (converted)
CYP3A4 = CYP3A4 (Homo sapiens, UniProt P08684); experiment: Inhibition of CYP3A4 in human liver microsomes at 10 uM assessed as remaining activity by measuring 1'-hydroxylation of midazolam after 30 mins; format: ADME; settings: probe midazolam (1'-hydroxylation), read-out: Activity
[26] = AUC (0 to 24 hrs) in cynomolgus monkey serum at 5 mg/kg, po; format: ADME, organism-based, Macaca fascicularis; set-up: time < 24 hr, dose 5 mg/kg, route oral
[27] = AUC (0 to 8 hrs) in cynomolgus monkey serum at 5 mg/kg, iv; format: ADME, organism-based, Macaca fascicularis; set-up: dose 5 mg/kg, time < 8 hr, route intravenous
Mus musculus [28] = experiment: Toxicity in Slc:ddY mouse assessed as induction of convulsion at 50 ug/5 uL/mouse administered intracisternally and measured over 30 mins post dose; format: organism-based; settings: in vivo, other, 0.5 h
Mus musculus [29] = experiment: Toxicity in Slc:ddY mouse assessed as induction of mortality at 15 ug/5 uL/mouse administered intracisternally and measured over 30 mins post dose; format: organism-based; settings: in vivo, other, 0.5 h
Mus musculus [30] = experiment: Toxicity in Slc:ddY mouse assessed as induction of mortality at 50 ug/5 uL/mouse administered intracisternally and measured over 30 mins post dose; format: organism-based; settings: in vivo, other, 0.5 h

T1 sequence (Q12809 whole entry): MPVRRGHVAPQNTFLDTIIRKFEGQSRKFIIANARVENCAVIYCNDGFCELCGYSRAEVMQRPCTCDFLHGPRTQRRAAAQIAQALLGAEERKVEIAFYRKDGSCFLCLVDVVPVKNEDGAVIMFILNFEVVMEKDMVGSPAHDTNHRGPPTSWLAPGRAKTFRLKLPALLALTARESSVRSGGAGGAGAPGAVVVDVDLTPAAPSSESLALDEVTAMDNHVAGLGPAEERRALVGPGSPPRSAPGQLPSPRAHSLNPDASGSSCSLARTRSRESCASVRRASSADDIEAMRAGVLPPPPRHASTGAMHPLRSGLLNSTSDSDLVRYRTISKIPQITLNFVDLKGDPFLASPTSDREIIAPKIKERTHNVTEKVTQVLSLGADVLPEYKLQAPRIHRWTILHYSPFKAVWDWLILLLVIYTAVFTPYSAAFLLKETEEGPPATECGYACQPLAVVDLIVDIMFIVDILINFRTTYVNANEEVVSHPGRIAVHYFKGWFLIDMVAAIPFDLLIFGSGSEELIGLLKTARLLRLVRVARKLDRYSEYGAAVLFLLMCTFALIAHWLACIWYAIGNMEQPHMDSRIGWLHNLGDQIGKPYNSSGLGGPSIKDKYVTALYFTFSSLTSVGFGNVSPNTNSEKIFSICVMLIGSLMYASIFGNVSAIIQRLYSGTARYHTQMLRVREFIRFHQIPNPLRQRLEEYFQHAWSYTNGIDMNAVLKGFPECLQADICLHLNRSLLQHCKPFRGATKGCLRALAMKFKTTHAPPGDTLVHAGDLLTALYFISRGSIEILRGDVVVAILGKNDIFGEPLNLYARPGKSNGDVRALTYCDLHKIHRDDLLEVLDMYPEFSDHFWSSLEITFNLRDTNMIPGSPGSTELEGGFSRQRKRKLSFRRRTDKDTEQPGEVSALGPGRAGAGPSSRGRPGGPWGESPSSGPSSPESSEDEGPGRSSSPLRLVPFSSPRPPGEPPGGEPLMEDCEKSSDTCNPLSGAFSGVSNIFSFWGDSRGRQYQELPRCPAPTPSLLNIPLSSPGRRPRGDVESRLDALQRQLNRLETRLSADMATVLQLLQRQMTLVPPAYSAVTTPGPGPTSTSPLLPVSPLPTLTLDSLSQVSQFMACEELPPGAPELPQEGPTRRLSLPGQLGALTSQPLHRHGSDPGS
Chain of Albumin (P02768 whole entry): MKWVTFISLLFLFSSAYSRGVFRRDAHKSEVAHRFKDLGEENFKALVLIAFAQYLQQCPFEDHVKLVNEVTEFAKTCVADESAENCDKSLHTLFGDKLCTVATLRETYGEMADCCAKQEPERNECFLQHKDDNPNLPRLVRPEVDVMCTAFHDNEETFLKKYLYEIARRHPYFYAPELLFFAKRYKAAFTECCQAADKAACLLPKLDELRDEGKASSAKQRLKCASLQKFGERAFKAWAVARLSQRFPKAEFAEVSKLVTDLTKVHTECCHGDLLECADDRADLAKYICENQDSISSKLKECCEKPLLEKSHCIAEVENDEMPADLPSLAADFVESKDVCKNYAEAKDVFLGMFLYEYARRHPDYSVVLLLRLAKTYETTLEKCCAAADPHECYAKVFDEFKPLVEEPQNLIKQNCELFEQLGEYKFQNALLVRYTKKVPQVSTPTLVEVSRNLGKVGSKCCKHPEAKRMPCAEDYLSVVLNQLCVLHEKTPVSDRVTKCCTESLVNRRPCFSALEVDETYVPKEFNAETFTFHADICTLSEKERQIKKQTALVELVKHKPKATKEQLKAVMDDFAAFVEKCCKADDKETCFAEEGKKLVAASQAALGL
Chain of CYP3A4 (P08684 whole entry): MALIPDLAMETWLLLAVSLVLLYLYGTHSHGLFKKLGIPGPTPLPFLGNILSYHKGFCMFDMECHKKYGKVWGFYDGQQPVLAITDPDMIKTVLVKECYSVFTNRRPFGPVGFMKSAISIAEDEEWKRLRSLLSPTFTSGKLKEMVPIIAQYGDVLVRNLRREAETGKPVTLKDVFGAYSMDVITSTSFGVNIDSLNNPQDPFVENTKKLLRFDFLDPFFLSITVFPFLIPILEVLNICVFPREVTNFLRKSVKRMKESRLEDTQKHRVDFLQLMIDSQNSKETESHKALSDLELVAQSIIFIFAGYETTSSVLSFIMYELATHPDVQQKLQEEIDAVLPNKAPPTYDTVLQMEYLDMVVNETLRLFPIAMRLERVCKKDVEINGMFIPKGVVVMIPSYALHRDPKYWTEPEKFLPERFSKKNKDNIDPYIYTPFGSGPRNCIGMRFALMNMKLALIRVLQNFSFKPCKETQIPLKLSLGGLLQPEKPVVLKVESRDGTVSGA

O=C(O)c1cn(C2CC2)c2cc(N3CCNCC3)c(F)cc2c1=O [CIPROFLOXACIN]
Activity (Mus musculus [1]): Non-Toxic | Activity (Mus musculus [2]): Toxic | Activity (Mus musculus [3]): Toxic | Activity (Mus musculus [4]): Toxic | Activity (Mus musculus [5]): Non-Toxic | Activity (Mus musculus [6]): Toxic | Activity (Mus musculus [7]): Toxic | Activity (Mus musculus [8]): Toxic

COc1c(N2C[C@@H]3CCCN[C@@H]3C2)c(F)cc2c(=O)c(C(=O)O)cn(C3CC3)c12
Activity (Streptococcus pneumoniae [9]): Active

C[C@H]1NCc2cc(-c3ccc4c(=O)c(C(=O)O)cn(C5CC5)c4c3OC(F)F)ccc21 [GARENOXACIN]
MIC (Staphylococcus aureus [10]): 0.008 to 8 µg/mL | MIC50 (Staphylococcus aureus [10]; Staphylococcus aureus, 18 h): 0.03 µg/mL (≈ 0.0704 µM) | MIC90 (Staphylococcus aureus [10]; Staphylococcus aureus, 18 h): 1 µg/mL (≈ 2.35 µM)

COc1c(N2C[C@@H]3CCOC[C@@]3(N)C2)c(F)cc2c(=O)c(C(=O)O)cn([C@@H]3C[C@@H]3F)c12
Activity (Streptococcus pneumoniae [11]): Active

N[C@@]12CCCC[C@H]1CNC2
MIC (Staphylococcus aureus [12]): < 0.003 µg/mL | MIC (Streptococcus pneumoniae [13]): 0.025 µg/mL (≈ 0.178 µM) | MIC (Streptococcus pneumoniae [14]): 0.025 µg/mL (≈ 0.178 µM) | MIC (Streptococcus pyogenes): 0.025 µg/mL (≈ 0.178 µM) | MIC (Enterococcus faecalis): 0.1 µg/mL (≈ 0.713 µM) | MIC (Bacillus spizizenii): 0.006 µg/mL (≈ 0.0428 µM) | MIC (Escherichia coli [15]): 0.006 µg/mL (≈ 0.0428 µM) | MIC (Klebsiella pneumoniae): 0.05 µg/mL (≈ 0.357 µM) | MIC (Haemophilus influenzae): 0.012 µg/mL (≈ 0.0856 µM) | MIC (Moraxella catarrhalis): 0.025 µg/mL (≈ 0.178 µM) | MIC (Pseudomonas aeruginosa): 0.39 µg/mL (≈ 2.78 µM) | MIC (Staphylococcus aureus [16]): 0.1 µg/mL (≈ 0.713 µM) | MIC (Staphylococcus aureus [17]): 0.1 µg/mL (≈ 0.713 µM) | MIC (Escherichia coli [18]): 1.56 µg/mL (≈ 11.1 µM) | MIC (Escherichia coli [19]): 0.025 µg/mL (≈ 0.178 µM) | inhibition at 30 µM (hERG (KCNH2) [20]): 19% | inhibition at 100 µM (hERG (KCNH2) [21]): 36% | Cmax [22]: 1280 ng/mL | AUC(0-t) at 8 h [23]: 4760 ng·h/mL

COc1c(N2CC3(CC3)[C@](C)(N)C2)c(F)cc2c(=O)c(C(=O)O)cn([C@@H]3C[C@@H]3F)c12
MIC (Staphylococcus aureus [12]): 0.012 µg/mL (≈ 0.0286 µM) | MIC (Streptococcus pneumoniae [14]): 0.1 µg/mL (≈ 0.238 µM) | MIC (Streptococcus pyogenes): 0.2 µg/mL (≈ 0.477 µM) | MIC (Bacillus spizizenii): 0.012 µg/mL (≈ 0.0286 µM) | MIC (Staphylococcus aureus [16]): 0.78 µg/mL (≈ 1.86 µM) | MIC (Staphylococcus aureus [17]): 0.78 µg/mL (≈ 1.86 µM) | MIC (Streptococcus pneumoniae [24]): 0.12 µg/mL (≈ 0.286 µM) | MIC (Escherichia coli [18]): 6.25 µg/mL (≈ 14.9 µM) | MIC (Escherichia coli [19]): 0.05 µg/mL (≈ 0.119 µM) | MIC50 (Staphylococcus aureus [10]; Staphylococcus aureus, 18 h): 0.03 µg/mL (≈ 0.0715 µM) | MIC90 (Staphylococcus aureus [10]; Staphylococcus aureus, 18 h): 1 µg/mL (≈ 2.38 µM) | MIC (Staphylococcus aureus [10]; Staphylococcus aureus, 18 h, read-out: MIC): 0.015 to 4 µg/mL (≈ 0.0358 to 9.54 µM) | remaining at 0.5 h, 1 µM [25]: 97% | fraction unbound at 1 h (Albumin): 0.946 | activity at 0.5 h, 10 µM (CYP3A4): 78.4% | AUC(0-t) at 24 h [26]: 16900 ng·h/mL | AUC(0-t) at 8 h [27]: 23800 ng·h/mL | Activity (Streptococcus pneumoniae [11]): Active | Activity (Mus musculus [1]): Non-Toxic | Activity (Mus musculus [28]): Toxic | Activity (Mus musculus [2]): Non-Toxic | Activity (Mus musculus [5]): Non-Toxic | Activity (Mus musculus [29]): Non-Toxic | Activity (Mus musculus [30]): Toxic | Activity (Mus musculus [6]): Non-Toxic | Activity (Mus musculus [7]): Non-Toxic | Activity (Mus musculus [8]): Non-Toxic

N[C@@]12CCCC[C@@H]1CNC2
MIC (Staphylococcus aureus [12]): 0.006 µg/mL (≈ 0.0428 µM) | MIC (Streptococcus pneumoniae [13]): 0.05 µg/mL (≈ 0.357 µM) | MIC (Streptococcus pneumoniae [14]): 0.05 µg/mL (≈ 0.357 µM) | MIC (Streptococcus pyogenes): 0.1 µg/mL (≈ 0.713 µM) | MIC (Enterococcus faecalis): 0.2 µg/mL (≈ 1.43 µM) | MIC (Bacillus spizizenii): 0.012 µg/mL (≈ 0.0856 µM) | MIC (Escherichia coli [15]): 0.025 µg/mL (≈ 0.178 µM) | MIC (Klebsiella pneumoniae): 0.1 µg/mL (≈ 0.713 µM) | MIC (Haemophilus influenzae): 0.025 µg/mL (≈ 0.178 µM) | MIC (Moraxella catarrhalis): 0.1 µg/mL (≈ 0.713 µM) | MIC (Pseudomonas aeruginosa): 1.56 µg/mL (≈ 11.1 µM) | MIC (Staphylococcus aureus [16]): 0.39 µg/mL (≈ 2.78 µM) | MIC (Staphylococcus aureus [17]): 1.56 µg/mL (≈ 11.1 µM) | MIC (Escherichia coli [18]): > 6.25 µg/mL | MIC (Escherichia coli [19]): 0.1 µg/mL (≈ 0.713 µM)
